Measurements published in patent US6037386A, “Composition for inactivating irritants in fluids” (priority 1999, dated 2000).

How the values were obtained:
[1] = test system: HBV; test: Cidal concentration of CHG (1 minute kill), HBV; assay type: cell-based
[2] = test system: Staphylococcus aureus; test: CFU in glove fingers inoculated with blood containing Staphylococcus aureus (synergistic activity); assay type: cell-based; conditions: 2 minutes; CHG 450 μg, ZnO 12.5 mg
Procedure: Synergistic Activity of Zinc Oxide and CHX. CHG, ZnO, and a combination thereof was added to each glove finger. Glove fingers were then inoculated with 0.1 mL of blood containing 10^5 CFU Staphylococcus aureusmL. After 2 minutes, 0.9 mL of LTSB was added, and 0.2 mL of the extract were plated to determine colony counts.
This experiment was carried out using the method described in Example 14.

[3] = test system: HIV; test: Cidal concentration of CHG (1 minute kill), HIV; assay type: cell-based
[4] = Product formed on mixing zinc salts with CHG / gel formation; assay type: physicochemical
Procedure: The following zinc salts were mixed with CHG for 1 hour and observed for the resulting product.

Compound | cidal concentration for HBV (1 minute kill) [1] | CFU/glove finger [2] | cidal concentration for HIV (1 minute kill) [3] | gel formation (in words) [4]
N=C(NCCCCCCNC(=N)NC(=N)Nc1ccc(Cl)cc1)NC(=N)Nc1ccc(Cl)cc1 [CHG, chlorhexidine gluconate] | the same as that for Staphylococcus aureus | 1420 CFU/glove finger | the same as that for Staphylococcus aureus | –
zinc gluconate | – | – | – | forming a gel matrix when mixed with water or alcohol
